Test [1] is described as follows: A Cell Based Secondary Assay To Explore Cytotoxicity of Compounds that Sensitize Mycobacterium Tuberculosis to Beta-Lactam Antibiotics. The test is classed as functional.
In test [2] the target is Peroxisome proliferator-activated receptor gamma/Nuclear receptor coactivator 2 (Homo sapiens, UniProt P37231). The test is classed as functional.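 Note: agonist potency for raising coactivator recruitment to the receptor.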
For test [3], the target named is Peroxisome proliferator-activated receptor gamma/Nuclear receptor coactivator 1 (Homo sapiens, UniProt P37231). It is filed as functional.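 Note: agonist potency as compounds enhance coactivator SRC-1 recruitment to PPARgamma.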
Peroxisome proliferator-activated receptor gamma/Nuclear receptor coactivator 1, sequence (P37231 whole entry): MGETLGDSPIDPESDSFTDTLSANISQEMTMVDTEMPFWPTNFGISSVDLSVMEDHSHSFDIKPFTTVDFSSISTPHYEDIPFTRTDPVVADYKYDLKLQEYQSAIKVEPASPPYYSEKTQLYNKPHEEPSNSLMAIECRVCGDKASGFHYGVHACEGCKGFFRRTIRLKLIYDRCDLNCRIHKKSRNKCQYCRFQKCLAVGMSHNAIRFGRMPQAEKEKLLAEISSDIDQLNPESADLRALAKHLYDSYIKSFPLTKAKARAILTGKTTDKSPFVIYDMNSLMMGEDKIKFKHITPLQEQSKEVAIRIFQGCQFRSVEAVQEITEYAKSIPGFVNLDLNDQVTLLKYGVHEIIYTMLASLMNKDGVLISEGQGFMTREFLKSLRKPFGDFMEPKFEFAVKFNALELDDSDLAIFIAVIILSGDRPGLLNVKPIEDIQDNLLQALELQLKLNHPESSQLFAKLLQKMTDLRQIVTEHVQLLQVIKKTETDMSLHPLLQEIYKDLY
Peroxisome proliferator-activated receptor gamma/Nuclear receptor coactivator 1, sequence (Q15788 whole entry, further chain): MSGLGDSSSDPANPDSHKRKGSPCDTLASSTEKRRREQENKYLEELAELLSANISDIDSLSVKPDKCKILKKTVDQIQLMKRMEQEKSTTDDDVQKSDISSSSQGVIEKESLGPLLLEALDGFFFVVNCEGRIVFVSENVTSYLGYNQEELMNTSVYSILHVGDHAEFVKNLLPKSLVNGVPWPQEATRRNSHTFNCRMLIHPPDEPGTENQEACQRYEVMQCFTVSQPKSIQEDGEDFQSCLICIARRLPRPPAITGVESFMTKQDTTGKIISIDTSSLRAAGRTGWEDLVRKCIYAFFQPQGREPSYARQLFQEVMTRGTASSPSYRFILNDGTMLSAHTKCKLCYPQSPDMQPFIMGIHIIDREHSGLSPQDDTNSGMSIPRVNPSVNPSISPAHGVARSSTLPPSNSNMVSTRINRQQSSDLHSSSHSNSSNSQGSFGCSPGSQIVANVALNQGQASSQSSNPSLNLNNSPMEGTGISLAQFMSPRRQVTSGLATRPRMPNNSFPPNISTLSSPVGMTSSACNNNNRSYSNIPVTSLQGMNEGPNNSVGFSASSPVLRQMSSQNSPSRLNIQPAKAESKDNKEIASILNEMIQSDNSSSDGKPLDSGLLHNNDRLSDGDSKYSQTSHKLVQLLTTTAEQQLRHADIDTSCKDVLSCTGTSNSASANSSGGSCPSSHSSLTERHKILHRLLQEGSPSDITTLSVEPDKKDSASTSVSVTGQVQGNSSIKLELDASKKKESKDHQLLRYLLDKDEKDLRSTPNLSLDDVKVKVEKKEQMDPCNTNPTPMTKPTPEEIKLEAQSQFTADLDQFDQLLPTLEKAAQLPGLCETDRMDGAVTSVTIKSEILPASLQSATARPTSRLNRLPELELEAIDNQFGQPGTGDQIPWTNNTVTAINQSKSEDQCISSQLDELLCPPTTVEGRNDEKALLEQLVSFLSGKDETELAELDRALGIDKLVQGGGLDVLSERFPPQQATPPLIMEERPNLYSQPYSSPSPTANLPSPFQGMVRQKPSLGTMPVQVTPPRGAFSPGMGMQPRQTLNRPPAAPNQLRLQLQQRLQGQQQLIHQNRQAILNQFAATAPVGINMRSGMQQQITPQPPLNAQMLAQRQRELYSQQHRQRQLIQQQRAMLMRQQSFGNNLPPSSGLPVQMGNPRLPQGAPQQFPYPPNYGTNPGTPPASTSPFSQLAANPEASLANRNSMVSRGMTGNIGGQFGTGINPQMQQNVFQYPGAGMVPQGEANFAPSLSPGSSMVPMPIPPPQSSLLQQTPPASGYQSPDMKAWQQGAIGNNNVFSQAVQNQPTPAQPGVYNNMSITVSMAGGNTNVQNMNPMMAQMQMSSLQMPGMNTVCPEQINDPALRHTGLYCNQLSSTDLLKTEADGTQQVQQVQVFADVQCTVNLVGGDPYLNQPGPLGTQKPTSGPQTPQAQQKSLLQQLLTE
Test [4] has as its target Peroxisome proliferator-activated receptor gamma/Nuclear receptor coactivator 3 (Homo sapiens, UniProt P37231). The test is classed as functional.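 Note: agonist potency for raising coactivator recruitment to the receptor.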
Test [5] in a line: inhibitors of firefly luciferase expression or activity, dose response, H4 neuroglioma cells, luminescence (AID 1990). It is filed as functional, cell-based.
Test [6] can be described thus: Luminescence Cell-Based Dose Response HTS to Identify Inhibitors of 5'UTR Stem-Loop Driven Prion Protein mRNA Translation in H4 Neuroglioblastoma Cells. [Related pubchem assays: 1827 (Project Summary), 1813 (Primary HTS)]. The test is classed as functional.
A short description of test [7]: inhibitors of SNCA 5'UTR-driven reporter translation, confirmation, H4 neuroglioma cells, luminescence (AID 1988). The test is classed as functional, cell-based.
Test [8] is described as follows: Luminescence-based counterscreen assay for KLF5 inhibitors: dose response cell-based high throughput screening assay to identify cytotoxic compounds using the IEC-6 intestinal epithelial cell line. [Related pubchem assays: 1700 (Primary screen.), 1834 (Confirmation screen.), 1858 (Summary AID.), 1905 (Counterscreen.)]. The test is classed as functional.
Test [9] in a line: cytotoxicity in HEK-293T cells, dose response, cytotoxicity control for TCR NF-kB inhibitor project, luminescence, T-cell screen hits (AID 489026).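 Note: cells exposed to compound about 14 hours before the viability readout.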 It is filed as functional, cell-based.
The subject of test [10] is INS1. Put plainly: beta cell apoptosis inhibitors, cytokine rescue, dose response, luminescence, retest (AID 449756).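 Note: cell death triggered by IL-1 beta plus TNF-alpha plus IFN-gamma mixture; protective hits raise ATP signal compared with cytokine alone wells.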 Particulars: Rattus norvegicus. The test is classed as functional, cell-based.
In test [11] the target is Transthyretin (Homo sapiens, UniProt P02766). The experiment in a line: Luminescence-based cell-based high throughput dose response assay to identify activators of Transthyretin (TTR) transcription. It is filed as functional.
The target of test [12] is T1, Estrogen receptor (Homo sapiens, UniProt P03372).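 Note: potency for inhibiting coactivator peptide recruitment to the receptor.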
T1 sequence (P03372 whole entry): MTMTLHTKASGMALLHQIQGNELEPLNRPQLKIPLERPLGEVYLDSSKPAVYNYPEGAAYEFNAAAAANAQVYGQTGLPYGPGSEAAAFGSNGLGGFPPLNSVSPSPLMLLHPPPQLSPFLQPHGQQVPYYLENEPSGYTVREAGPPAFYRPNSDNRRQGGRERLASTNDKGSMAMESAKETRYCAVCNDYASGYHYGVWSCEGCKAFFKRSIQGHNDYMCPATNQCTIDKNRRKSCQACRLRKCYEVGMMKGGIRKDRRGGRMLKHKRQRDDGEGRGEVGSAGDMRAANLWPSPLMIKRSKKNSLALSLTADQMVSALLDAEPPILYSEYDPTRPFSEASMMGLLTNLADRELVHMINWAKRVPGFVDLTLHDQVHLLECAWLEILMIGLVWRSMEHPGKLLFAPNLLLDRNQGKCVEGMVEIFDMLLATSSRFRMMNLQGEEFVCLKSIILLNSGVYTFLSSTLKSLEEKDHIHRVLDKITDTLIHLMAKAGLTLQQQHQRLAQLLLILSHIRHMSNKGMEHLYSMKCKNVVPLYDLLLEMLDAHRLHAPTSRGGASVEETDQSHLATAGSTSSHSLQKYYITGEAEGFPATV

Test [13] in a line: Luminescence-based cell-based high throughput dose response assay to identify activators of the DAF-12 from the parasite S. stercoralis (ssDAF-12). It is filed as functional.
Test [14] has as its target T2, Oxysterols receptor LXR-beta (Homo sapiens, UniProt P55055).
T2 sequence (P55055 whole entry): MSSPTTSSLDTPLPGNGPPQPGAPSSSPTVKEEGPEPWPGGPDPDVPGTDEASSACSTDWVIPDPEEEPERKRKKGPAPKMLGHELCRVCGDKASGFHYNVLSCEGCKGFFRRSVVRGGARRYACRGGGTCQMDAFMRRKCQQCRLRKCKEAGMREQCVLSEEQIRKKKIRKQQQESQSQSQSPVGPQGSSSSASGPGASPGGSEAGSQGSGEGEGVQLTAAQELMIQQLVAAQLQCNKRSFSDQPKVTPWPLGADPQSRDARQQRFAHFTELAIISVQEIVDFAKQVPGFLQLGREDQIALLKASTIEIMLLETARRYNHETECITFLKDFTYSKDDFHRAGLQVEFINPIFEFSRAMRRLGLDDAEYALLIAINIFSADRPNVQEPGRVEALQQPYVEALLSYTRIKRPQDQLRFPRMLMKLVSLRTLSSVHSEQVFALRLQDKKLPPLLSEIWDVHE
Put plainly: LXR agonists, Gal4 luciferase reporter, dose response, counter-screen for ssDAF-12 agonist project, cell-based, luminescence, HEK293, S. stercoralis campaign (AID 720737). The test is classed as functional. Particulars: read-out: IC50 (the source's name).

Test [15] in a line: cells.
A short description of test [16]: inhibitors of intracellular T. cruzi replication, confirmation, NIH3T3 host cells, beta-gal luminescence (AID 2044).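 Note: intracellular parasites grown in NIH/3T3 mouse fibroblasts as host cells; luminescent beta-galactosidase reporter signal from transgenic T. cruzi replicating inside host cells; inhibitors lower the luminescence signal.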 It is filed as functional, cell-based.
A short description of test [17]: cytotoxicity toward NIH3T3 fibroblasts, dose response, counter-screen, cell-based, ATP luminescence, mouse fibroblasts (AID 2010).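 Note: cells exposed to compound for about 90 hours before reading.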 It is filed as functional.

The structures appear in SMILES notation. The source made the active and inactive calls. Where only a bound is given, the exact number is not on record here.

Peroxisome proliferator-activated receptor gamma/Nuclear receptor coactivator 3, sequence (P37231 whole entry): as the sequence (P37231 whole entry) above
Peroxisome proliferator-activated receptor gamma/Nuclear receptor coactivator 3, sequence (Q9Y6Q9 whole entry, further chain): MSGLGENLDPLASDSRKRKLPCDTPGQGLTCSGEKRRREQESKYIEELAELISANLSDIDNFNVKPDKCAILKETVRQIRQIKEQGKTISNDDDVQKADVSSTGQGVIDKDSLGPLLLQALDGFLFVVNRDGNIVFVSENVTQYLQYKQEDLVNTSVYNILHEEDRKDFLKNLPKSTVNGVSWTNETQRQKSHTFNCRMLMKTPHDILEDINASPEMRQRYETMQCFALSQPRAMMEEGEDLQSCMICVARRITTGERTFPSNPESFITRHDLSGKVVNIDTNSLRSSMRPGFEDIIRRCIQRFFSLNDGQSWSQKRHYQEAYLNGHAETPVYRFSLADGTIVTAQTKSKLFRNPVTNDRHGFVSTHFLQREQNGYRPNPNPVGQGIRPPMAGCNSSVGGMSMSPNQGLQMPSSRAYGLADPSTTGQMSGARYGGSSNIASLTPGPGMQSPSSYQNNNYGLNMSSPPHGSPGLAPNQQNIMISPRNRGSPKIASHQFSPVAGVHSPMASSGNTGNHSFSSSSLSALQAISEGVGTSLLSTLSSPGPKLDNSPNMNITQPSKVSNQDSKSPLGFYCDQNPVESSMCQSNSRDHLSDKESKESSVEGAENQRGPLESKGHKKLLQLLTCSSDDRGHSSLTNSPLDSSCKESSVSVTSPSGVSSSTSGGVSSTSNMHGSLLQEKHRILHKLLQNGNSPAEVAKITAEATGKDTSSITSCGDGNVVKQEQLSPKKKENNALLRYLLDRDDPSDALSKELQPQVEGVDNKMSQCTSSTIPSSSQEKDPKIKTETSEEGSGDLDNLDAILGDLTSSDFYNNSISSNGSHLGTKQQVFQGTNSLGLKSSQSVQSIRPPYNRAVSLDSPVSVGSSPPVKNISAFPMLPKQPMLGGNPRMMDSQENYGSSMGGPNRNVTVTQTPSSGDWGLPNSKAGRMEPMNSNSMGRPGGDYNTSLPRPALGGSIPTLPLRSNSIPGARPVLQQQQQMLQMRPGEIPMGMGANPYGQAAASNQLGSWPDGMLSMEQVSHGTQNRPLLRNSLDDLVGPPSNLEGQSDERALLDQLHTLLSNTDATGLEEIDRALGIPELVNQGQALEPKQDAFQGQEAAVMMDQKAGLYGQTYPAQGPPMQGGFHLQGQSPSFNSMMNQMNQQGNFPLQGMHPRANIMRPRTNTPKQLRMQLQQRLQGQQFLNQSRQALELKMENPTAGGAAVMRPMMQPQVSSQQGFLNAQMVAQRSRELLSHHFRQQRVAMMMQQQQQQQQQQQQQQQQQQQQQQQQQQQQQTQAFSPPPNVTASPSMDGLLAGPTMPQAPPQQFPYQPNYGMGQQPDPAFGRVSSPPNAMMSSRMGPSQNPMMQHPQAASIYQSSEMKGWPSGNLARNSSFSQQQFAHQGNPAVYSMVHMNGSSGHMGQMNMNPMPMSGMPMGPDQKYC

By CC50 is commonly meant the concentration that lowers cell viability or growth by half. Consider `COc1ccc(OC)c(-c2cc(C(=O)Nc3c(C)nn(Cc4ccccc4C)c3C)no2)c1`, for which the CC50 in test [1] was 34.7 µM (active).

On to `CCc1ccc(OCC(=O)NNC(=O)CSc2ncnc3sc(C)c(C)c23)cc1`, for which the EC50 in [2] is listed as 25.7 µM (not active); in test [3], 28.8 µM (not active); in test [4], 33.8 µM (not active).

In general, IC50 refers to the concentration at which inhibition is half-maximal. What is called AC50 is the concentration at which the activity in the assay is half-maximal. Turning to `C#Cc1ccc([C@@H]2C=C(C(=O)N3CCN(Cc4ccccc4)CC3)O[C@H](OCCCCO)C2)cc1`, the EC50 in test [5] is 9.88 µM (active); in [6], 9.17 µM (active); in test [7] it was 7.64 µM (active). Also, the results for the IC50 in [8] and in test [9] were > 39.8 µM (not active) and > 80 µM (inactive), respectively. For the same compound, the AC50 in test [10] was 1.01 µM (active).

In the case of `Cc1c(C(=O)N2CCc3ccccc32)cnn1C`, in test [11], the EC50 is > 167 µM (inactive).

For `CC(C)(C)c1nnc(NC(=O)CN2C(=O)C3C4C=CC(C4)C3C2=O)s1` (configuration not stated), the EC50 in test [2], in test [3] and in [4] was > 79.4 µM (not active) throughout.

Take `COc1ccc(C(=O)NC2CCCc3c2cnn3-c2cc(F)cc(F)c2)c(OC)c1OC` (configuration not stated): the EC50 in test [11] was > 167 µM (inactive).

Consider `COC(=O)Oc1c(Br)c(=O)oc2ccccc12`, for which the IC50 in [12] was > 50 µM (not active).

Turning to `Cc1ccc(/C=N/Nc2nnc(Cl)c3ccccc23)cc1`, the IC50 in test [13] was > 67.5 µM (inactive). Also, in test [14], the EC50 is > 67.5 µM (inactive).

For the compound `C/C(N)=C(/C#N)C(=O)COC(=O)c1cc2c(s1)CCCC2`, the IC50 in test [15] was 21.3 µM (active).

As for `CCCCOc1ccc(/C=N/Nc2cc(N3CCOCC3)nc(C)n2)cc1`, the CC50 in test [1] was > 40 µM (active). The EC50 in [16] was 2.46 µM (active); in test [17], > 60 µM (not active).

For the origin of these results see ChEMBL document CHEMBL1201862, “PubChem BioAssay data set” (2004).
